Measured values taken from patent US10294227B2, “Compounds” (UNIVERSITY COURT OF THE UNIVERSITY OF EDINBURGH, priority 2015, dated 2019).
Where two headings read alike, the source gives them in different places.

Legend:
CYP3A4 = CYP3A4 (Homo sapiens (Human), UniProt P08684); assay: CYP P450 inhibition
hERG channel [1] = target: T1, hERG channel (Homo sapiens (Human), UniProt Q12809); assay: hERG Safety Assay, Ionworks high-throughput electrophysiology
HCK = HCK (Homo sapiens (Human), UniProt P08631); assay: Kinase screening assay (IC50)
[2] = Liver microsome stability; type: in vitro ADME; conditions: % of unmodified drug after 30 min incubation with liver microsomes
FYN = FYN (Homo sapiens (Human), UniProt P06241); assay: Kinase screening assay (IC50)
Sequence of FYN (P06241 whole entry): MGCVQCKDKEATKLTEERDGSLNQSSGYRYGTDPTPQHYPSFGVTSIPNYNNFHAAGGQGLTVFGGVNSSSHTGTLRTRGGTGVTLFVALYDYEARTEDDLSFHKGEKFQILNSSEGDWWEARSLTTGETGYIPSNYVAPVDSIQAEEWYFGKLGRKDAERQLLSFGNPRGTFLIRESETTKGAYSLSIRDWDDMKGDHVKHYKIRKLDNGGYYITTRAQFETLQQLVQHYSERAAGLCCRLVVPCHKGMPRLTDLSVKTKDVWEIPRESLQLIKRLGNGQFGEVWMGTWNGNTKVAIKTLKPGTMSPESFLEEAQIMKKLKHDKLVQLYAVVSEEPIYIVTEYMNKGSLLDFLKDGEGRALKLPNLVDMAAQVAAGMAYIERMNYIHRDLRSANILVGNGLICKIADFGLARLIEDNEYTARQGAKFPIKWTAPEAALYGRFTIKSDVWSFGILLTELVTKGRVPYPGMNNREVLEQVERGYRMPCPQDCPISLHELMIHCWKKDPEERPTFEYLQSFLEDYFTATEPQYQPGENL

[3] = rat, serum
BLK = BLK (Homo sapiens (Human), UniProt P51451); assay: Kinase screening assay (IC50)
LCK = LCK (Homo sapiens (Human), UniProt P06239); assay: Kinase screening assay (IC50)
LYN = LYN (Homo sapiens (Human), UniProt P07948); assay: Kinase screening assay (IC50)
CYP1A2 [4] = target: T2, CYP1A2 (Homo sapiens (Human), UniProt P05177); assay: in vitro
T2 sequence (P05177 whole entry): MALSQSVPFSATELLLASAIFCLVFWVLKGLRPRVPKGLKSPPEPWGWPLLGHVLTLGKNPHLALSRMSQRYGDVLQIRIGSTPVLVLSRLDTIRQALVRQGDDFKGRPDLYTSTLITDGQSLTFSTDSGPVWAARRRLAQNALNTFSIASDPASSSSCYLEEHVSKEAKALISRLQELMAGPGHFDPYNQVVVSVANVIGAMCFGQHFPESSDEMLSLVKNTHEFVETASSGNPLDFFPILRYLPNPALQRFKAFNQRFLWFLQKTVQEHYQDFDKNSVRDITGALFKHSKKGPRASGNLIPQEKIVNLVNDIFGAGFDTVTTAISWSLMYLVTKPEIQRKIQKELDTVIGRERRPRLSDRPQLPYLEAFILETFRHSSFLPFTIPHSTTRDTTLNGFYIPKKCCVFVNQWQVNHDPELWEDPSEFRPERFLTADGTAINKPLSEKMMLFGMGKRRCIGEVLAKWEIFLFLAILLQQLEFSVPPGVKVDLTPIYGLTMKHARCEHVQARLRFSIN

[5] = human, serum
hERG channel [6] = target: T1, hERG channel; assay: Predictor hERG Fluorescence Polarization Assay; type: binding; conditions: fluorescence polarization kit; read-out: hERG channel inhibition IC50
Excerpt: These experiments corroborated the safety of the compounds.

PDGFRa = PDGFRa (Homo sapiens (Human), UniProt P16234); assay: Kinase screening assay (IC50); type: biochemical
Sequence of PDGFRa (P16234 24-1089): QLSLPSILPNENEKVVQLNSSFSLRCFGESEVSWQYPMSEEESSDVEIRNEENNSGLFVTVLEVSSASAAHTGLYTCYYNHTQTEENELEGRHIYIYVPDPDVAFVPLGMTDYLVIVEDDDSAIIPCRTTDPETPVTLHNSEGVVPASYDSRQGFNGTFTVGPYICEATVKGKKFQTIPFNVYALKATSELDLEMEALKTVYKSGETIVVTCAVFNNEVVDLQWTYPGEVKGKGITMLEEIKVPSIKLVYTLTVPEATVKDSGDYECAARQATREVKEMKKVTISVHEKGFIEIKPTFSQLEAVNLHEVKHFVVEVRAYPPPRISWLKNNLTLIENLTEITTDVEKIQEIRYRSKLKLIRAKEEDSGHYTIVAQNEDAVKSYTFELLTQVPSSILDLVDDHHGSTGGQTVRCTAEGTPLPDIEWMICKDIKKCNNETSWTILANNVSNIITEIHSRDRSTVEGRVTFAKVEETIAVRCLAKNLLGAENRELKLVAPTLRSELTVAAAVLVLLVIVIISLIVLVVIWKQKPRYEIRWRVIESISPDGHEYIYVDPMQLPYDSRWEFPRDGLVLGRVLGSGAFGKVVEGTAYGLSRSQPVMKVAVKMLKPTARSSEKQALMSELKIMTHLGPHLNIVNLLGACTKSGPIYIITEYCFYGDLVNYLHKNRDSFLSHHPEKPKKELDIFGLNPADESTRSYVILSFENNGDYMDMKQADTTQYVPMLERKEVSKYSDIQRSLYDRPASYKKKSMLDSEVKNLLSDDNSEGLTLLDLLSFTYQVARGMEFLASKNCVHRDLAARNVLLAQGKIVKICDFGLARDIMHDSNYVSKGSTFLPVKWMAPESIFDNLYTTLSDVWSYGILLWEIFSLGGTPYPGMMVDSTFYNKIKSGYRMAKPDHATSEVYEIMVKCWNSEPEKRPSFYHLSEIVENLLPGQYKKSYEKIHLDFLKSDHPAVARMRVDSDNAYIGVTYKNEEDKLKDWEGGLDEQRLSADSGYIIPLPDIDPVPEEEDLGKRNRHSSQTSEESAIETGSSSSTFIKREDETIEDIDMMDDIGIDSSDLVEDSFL

RET = RET (Homo sapiens (Human), UniProt P07949); assay: Kinase screening assay (IC50)
Sequence of RET (P07949 29-1114): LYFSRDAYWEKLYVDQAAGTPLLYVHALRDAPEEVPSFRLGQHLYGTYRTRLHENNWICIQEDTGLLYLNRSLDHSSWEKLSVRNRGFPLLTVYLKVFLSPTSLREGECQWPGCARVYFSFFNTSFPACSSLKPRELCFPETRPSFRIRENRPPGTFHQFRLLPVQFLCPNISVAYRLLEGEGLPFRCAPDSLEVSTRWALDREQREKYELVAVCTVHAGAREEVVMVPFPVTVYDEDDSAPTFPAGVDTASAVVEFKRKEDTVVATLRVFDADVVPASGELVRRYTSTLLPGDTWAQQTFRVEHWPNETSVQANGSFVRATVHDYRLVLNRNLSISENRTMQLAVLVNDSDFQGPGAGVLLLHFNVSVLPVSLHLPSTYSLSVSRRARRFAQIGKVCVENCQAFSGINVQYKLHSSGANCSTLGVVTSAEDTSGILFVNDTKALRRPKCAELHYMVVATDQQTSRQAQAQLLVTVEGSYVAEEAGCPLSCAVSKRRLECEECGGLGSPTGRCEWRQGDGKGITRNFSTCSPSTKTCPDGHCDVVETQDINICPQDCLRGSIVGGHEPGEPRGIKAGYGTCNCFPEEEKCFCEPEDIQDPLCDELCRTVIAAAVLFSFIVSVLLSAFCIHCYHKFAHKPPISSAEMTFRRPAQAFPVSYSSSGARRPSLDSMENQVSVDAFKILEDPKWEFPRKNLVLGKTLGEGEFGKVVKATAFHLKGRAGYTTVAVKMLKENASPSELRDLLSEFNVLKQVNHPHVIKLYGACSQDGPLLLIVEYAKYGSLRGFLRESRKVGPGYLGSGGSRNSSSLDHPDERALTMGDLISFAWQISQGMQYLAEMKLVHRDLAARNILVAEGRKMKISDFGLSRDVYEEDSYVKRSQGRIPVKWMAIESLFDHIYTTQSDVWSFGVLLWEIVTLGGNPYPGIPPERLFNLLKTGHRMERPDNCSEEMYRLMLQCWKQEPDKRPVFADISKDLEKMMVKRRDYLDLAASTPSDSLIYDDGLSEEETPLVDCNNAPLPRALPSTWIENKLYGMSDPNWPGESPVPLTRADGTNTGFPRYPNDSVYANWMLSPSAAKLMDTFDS

mTOR = mTOR (Homo sapiens (Human), UniProt P42345); assay: Kinase screening assay (IC50); type: biochemical
CYP2C19 = CYP2C19 (Homo sapiens (Human), UniProt P33261); assay: CYP P450 inhibition
Sequence of CYP2C19 (P33261 whole entry): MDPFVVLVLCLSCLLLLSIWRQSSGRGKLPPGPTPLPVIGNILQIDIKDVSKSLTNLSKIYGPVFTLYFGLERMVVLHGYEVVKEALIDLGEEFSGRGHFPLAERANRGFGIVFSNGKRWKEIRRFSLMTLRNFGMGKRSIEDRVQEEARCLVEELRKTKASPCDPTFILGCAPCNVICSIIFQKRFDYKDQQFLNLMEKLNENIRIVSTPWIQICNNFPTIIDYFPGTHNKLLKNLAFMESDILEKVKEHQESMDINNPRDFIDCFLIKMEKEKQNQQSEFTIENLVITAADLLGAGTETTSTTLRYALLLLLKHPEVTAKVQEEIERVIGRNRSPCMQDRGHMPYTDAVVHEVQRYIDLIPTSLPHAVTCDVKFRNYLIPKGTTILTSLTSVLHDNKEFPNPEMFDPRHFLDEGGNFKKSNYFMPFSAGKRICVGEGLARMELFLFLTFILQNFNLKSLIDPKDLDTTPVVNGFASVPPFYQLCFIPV

CYP2D6 = CYP2D6 (Homo sapiens (Human), UniProt P10635); assay: CYP P450 inhibition
KIT = KIT (Homo sapiens (Human), UniProt P10721); assay: Kinase screening assay (IC50)
CYP2C9 = CYP2C9 (Homo sapiens (Human), UniProt P11712); assay: CYP P450 inhibition
FGR = FGR (Homo sapiens (Human), UniProt P09769); assay: Kinase screening assay (IC50)
MCF7 cells = assay: Cell viability assay (PrestoBlue); type: cell-based; conditions: Homo sapiens, MCF7, 120 h; cell viability at day 5; read-out: Antiproliferative activity (EC50) MCF7
[7] = test system: SYF fibroblasts (deficient for Src, Yes, and Fyn); assay: Cell viability assay (PrestoBlue); type: cell-based, murine; conditions: Mus musculus, Fibroblast, 120 h; cell viability at day 5; read-out: Antiproliferative activity (EC50) SYF (−/− Src)
[8] = target: selection of recombinant kinases; assay: Kinase screening assay, panel summary; type: biochemical, human; conditions: 15 kinases of Table 2
[9] = Stability in mouse plasma; type: in vitro ADME; conditions: % of unmodified drug after 120 min in plasma
Stability in rat plasma = conditions: % of unmodified drug after 120 min in plasma
[10] = Stability in human plasma; type: in vitro ADME; conditions: % of unmodified drug after 120 min in plasma
FRK/PTK5 = FRK/PTK5 (Homo sapiens (Human), UniProt P42685); assay: Kinase screening assay (IC50)
[11] = mouse, in vivo
[12] = PBS, aqueous buffer
in vivo = conditions: female, mouse
CYP1A2 [13] = target: T2, CYP1A2; assay: CYP P450 inhibition
[14] = read-out: Kinase Screening (IC50) FYN, Src Family
[15] = read-out: Target inhibition (IC50) FYN, 10 μM ATP
[16] = read-out: Kinase Screening (IC50) BLK, Src Family
[17] = read-out: Target inhibition (IC50) BLK, 10 μM ATP
[18] = read-out: Kinase Screening (IC50) LCK, Src Family
[19] = read-out: Target inhibition (IC50) LCK, 10 μM ATP
[20] = read-out: Kinase Screening (IC50) LYN, Src Family
[21] = read-out: Target inhibition (IC50) LYN, 10 μM ATP
[22] = 10 μM ATP, read-out: Target inhibition (IC50) PDGFRa
[23] = read-out: Kinase Screening (IC50) PDGFRa
[24] = read-out: Kinase Screening (IC50) RET
[25] = read-out: Target inhibition (IC50) RET, 10 μM ATP
[26] = 10 μM ATP, read-out: Target inhibition (IC50) mTOR
[27] = read-out: Kinase Screening (IC50) mTOR
[28] = read-out: Kinase Screening (IC50) c-KIT
[29] = read-out: Kinase Screening (IC50) FGR, Src Family
[30] = read-out: Target inhibition (IC50) FGR, 10 μM ATP
[31] = read-out: Target inhibition (IC50) KIT, 10 μM ATP

T1 sequence (Q12809 whole entry): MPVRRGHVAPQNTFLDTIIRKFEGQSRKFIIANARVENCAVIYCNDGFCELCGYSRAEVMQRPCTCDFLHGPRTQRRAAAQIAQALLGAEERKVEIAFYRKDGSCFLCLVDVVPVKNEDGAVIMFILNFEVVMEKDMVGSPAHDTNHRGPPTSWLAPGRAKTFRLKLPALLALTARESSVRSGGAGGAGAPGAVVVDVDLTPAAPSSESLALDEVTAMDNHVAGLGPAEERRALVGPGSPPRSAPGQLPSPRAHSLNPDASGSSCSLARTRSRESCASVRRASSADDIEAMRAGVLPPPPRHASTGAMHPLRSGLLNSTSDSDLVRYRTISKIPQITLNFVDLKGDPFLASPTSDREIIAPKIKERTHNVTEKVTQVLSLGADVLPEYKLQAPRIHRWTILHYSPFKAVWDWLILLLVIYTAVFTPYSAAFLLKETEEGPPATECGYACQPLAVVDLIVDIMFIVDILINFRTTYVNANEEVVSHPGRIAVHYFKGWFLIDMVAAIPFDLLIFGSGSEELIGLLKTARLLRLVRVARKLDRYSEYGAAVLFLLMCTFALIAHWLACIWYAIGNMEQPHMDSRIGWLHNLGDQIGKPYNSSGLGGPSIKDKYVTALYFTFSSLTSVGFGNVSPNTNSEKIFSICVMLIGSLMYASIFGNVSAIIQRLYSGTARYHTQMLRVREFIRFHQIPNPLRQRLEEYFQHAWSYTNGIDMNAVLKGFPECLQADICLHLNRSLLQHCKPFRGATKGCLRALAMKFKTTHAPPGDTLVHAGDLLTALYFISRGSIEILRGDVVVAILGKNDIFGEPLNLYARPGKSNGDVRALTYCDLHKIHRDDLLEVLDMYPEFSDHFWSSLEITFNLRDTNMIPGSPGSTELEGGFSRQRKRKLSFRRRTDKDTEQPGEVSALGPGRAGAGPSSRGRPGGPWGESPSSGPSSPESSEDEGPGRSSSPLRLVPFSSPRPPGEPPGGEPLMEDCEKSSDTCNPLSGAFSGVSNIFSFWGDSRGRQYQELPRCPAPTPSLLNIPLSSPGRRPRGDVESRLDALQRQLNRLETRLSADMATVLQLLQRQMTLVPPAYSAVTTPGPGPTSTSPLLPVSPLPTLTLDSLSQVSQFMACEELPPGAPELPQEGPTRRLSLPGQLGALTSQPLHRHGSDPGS

## COc1cc(-c2nn(CCN3CCC(N(C)C)CC3)c3ncnc(N)c23)ccc1NCc1ccccc1 [Compound 533, 3-[4-(benzylamino)-3-methoxy-phenyl]-1-[2-[4-(dimethylamino)-1-piperidyl]ethyl]pyrazolo[3,4-d]pyrimidin-4-amine]
CYP3A4
  inhibition at 10 µM: 3.1%
hERG channel [1]
  IC50: 2550 nM
HCK; read-out: Kinase Screening (IC50) HCK, Src Family
  IC50: < 10 nM
HCK; read-out: Target inhibition (IC50) HCK, 10 μM ATP
  IC50: < 10 nM
[2]
  30 min Liver Microsome stability: 98.8%
FYN; [14]
  IC50: < 10 nM
FYN; [15]
  IC50: < 10 nM
[3]
  fraction unbound: 0.106
BLK; [16]
  IC50: < 10 nM
BLK; [17]
  IC50: < 10 nM
LCK; [18]
  IC50: < 10 nM
LCK; [19]
  IC50: < 10 nM
LYN; [20]
  IC50: < 10 nM
LYN; [21]
  IC50: < 10 nM
CYP1A2 [4]
  inhibition at 10 µM: 8.3%
[5]
  fraction unbound: 0.118
hERG channel [6]
  IC50: 10000 to 15000 nM
PDGFRa; [22]
  IC50: > 1000 nM
PDGFRa; [23]
  IC50: > 1000 nM
RET; [24]
  IC50: > 1000 nM
RET; [25]
  IC50: > 1000 nM
mTOR; [26]
  IC50: > 1000 nM
mTOR; [27]
  IC50: > 1000 nM
CYP2C19
  inhibition at 10 µM: 26.8%
CYP2D6
  inhibition at 10 µM: 7.4%
KIT
  IC50: 100 to 1000 nM
KIT; [28]
  IC50: 100 to 1000 nM
CYP2C9
  inhibition at 10 µM: -35.4%
FGR; [29]
  IC50: < 10 nM
FGR; [30]
  IC50: < 10 nM

## CN(C)C1CCN(CCn2nc(-c3ccc(CC(=O)O)cc3)c3c(N)ncnc32)CC1 [Compound 556, 2-[4-[4-amino-1-[2-[4-(dimethylamino)-1-piperidyl]ethyl]pyrazolo[3,4-d]pyrimidin-3-yl]phenyl]acetic acid]
MCF7 cells
  EC50: > 10000 nM
[7]
  EC50: > 10000 nM
[8]
  Target inhibition (IC50), remark on the whole panel: No inhibition found

## COc1cc(-c2nn(CCN3CCC(N(C)C)CC3)c3ncnc(N)c23)ccc1CC(=O)OC(C)(C)C [Compound 565, tert-butyl 2-[4-[4-amino-1-[2-[4-(dimethylamino)-1-piperidyl]ethyl]pyrazolo[3,4-d]pyrimidin-3-yl]-2-methoxy-phenyl]acetate]
CYP3A4
  inhibition at 10 µM: 5.7%
hERG channel [1]
  IC50: > 25000 nM
[9]
  Stability in mouse plasma: 100%
[2]
  30 min Liver Microsome stability: 78.7%
FYN; [14]
  IC50: < 10 nM
FYN; [15]
  IC50: < 10 nM
Stability in rat plasma
  Stability in rat plasma: 93.3%^
[3]
  fraction unbound: 0.139
[10]
  Stability in human plasma: 94%
BLK; [16]
  IC50: < 10 nM
BLK; [17]
  IC50: < 10 nM
LCK; [18]
  IC50: < 10 nM
LCK; [19]
  IC50: < 10 nM
LYN; [20]
  IC50: < 10 nM
LYN; [21]
  IC50: < 10 nM
CYP1A2 [4]
  inhibition at 10 µM: 4.3%
[5]
  fraction unbound: 0.177
PDGFRa; [22]
  IC50: > 1000 nM
PDGFRa; [23]
  IC50: > 1000 nM
RET; [24]
  IC50: > 1000 nM
RET; [25]
  IC50: > 1000 nM
FRK/PTK5; read-out: Kinase Screening (IC50) FRK, Src Family
  IC50: < 10 nM
FRK/PTK5; read-out: Target inhibition (IC50) FRK/PTK5, 10 μM ATP
  IC50: < 10 nM
[11]
  toxic effects in PK study: no toxic effects
mTOR; [26]
  IC50: > 1000 nM
mTOR; [27]
  IC50: > 1000 nM
CYP2C19
  inhibition at 10 µM: -0.4%
CYP2D6
  inhibition at 10 µM: 9.4%
[12]
  solubility: > 100 mg/mL
KIT; [28]
  IC50: > 1000 nM
KIT; [31]
  IC50: > 1000 nM
CYP2C9
  inhibition at 10 µM: -35.8%
In vivo
  bioavailability: 52%
  half-life: 2 h
In vivo; po
  bioavailability: 52%
FGR; [29]
  IC50: < 10 nM
FGR; [30]
  IC50: < 10 nM

## COc1cc(-c2nn(CCN3CCC(N(C)C)CC3)c3ncnc(N)c23)ccc1NC(=O)OC(C)(C)C [Compound 506, tert-butyl N-[4-[4-amino-1-[2-[4-(dimethylamino)-1-piperidyl]ethyl]pyrazolo[3,4-d]pyrimidin-3-yl]-2-methoxy-phenyl]carbamate]
CYP3A4
  inhibition at 10 µM: -74.6%
hERG channel [1]
  IC50: 18200 nM
CYP1A2 [13]
  inhibition at 10 µM: 24.6%
RET
  IC50: > 10000 nM
RET; [24]
  IC50: > 1000 nM
RET; [25]
  IC50: > 1000 nM
CYP2C19
  inhibition at 10 µM: -5.4%
CYP2D6
  inhibition at 10 µM: 31.8%
[12]
  solubility: > 100 mg/mL
KIT
  IC50: 5130 nM
KIT; [28]
  IC50: > 1000 nM
KIT; [31]
  IC50: > 1000 nM
CYP2C9
  inhibition at 10 µM: -23.1%
